Source: patent publication US20250360092A1, “Carotenoid-fortified Yogurt and Methods For Preparing The Same” (Maravilla, LLC, priority 2024, published 2025)

Type: physicochemical
Details: start of the thirty-five-day storage at 4° C.
Description: Lutein and Zeaxanthin Stability Over Shelf Life. […] The stability may be influenced by the way lutein was added to the yogurt. When lutein is introduced post-fermentation via stirring, it tends to degrade in a concentration-dependent manner. […] This phenomenon may be attributed to the consumption of oxygen in milk by Lactobacillus bulgaricus during fermentation. […] The samplings were weighted into […] falcon tubes and 4 milliliters of tetrahydrofuran containing 0.1% was added to each sampling. The mixtures were vortexed for 30 seconds and centrifuged at 3500 grams for 5 minute at 20° C. […] The three extracts were then pooled and dried in the vacuum centrifuge at less than 30° C. and the dry residue was resuspended in 10 milliliters of acetone and read in the spectrophotometer. […] Carotenoid profiling, relative purity and quantification were carried out in a HPLC 1260 Infinity Series (Agilent Technologies, Santa Clara, CA, USA), equipped with a diode array detector, quaternary pump, degasser, thermostatically-controlled column compartment, and a thermostatically-controlled autosampler. […] For carotenoid quantification in human serum, 100 microliters of a sampling were injected. […] Differences in serum carotenoid concentration at each time point were assessed by paired t-test.

| starting concentration in the lutein-fortified yogurt sample | SMILES |
| --- | --- |
| 14.60±0.41 mg/100 g | CC1=C[C@H](O)CC(C)(C)[C@H]1/C=C/C(C)=C/C=C/C(C)=C/C=C/C=C(C)/C=C/C=C(C)/C=C/C1=C(C)C[C@@H](O)CC1(C)C [Lutein, lutein] |
| 0.71±0.02 mg/100 g | CC1=C(/C=C/C(C)=C/C=C/C(C)=C/C=C/C=C(C)/C=C/C=C(C)/C=C/C2=C(C)C[C@@H](O)CC2(C)C)C(C)(C)C[C@H](O)C1 [Zeaxanthin, zeaxanthin] |
